Laboratory results taken from PubChem BioAssay (NCI).
Values joined by “and” are separate entries in the source; they are usually repeats but may differ in a detail not shown here. Identical values can stand only once.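 Step 1: Grow cells in 96-well plates. Step 2: Expose to compound for 48 hours at 5 concentrations. Step 3: Interpolate endpoints linearly; if unreached, use highest concentration. At the GI50, growth is halved. At the TGI there is no net growth.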

How the values were obtained:
Assay in all cases: DTP human tumour cell line panel, 48 h
[1] = test system: SN12C renal
[2] = test system: CCRF-CEM leukemia
[3] = test system: MCF7 breast
[4] = test system: MOLT-4 leukemia
[5] = test system: NCI-H23 lung
[6] = test system: CAKI-1 renal
[7] = test system: HCC-2998 colon
[8] = test system: UO-31 renal
[9] = test system: IGROV1 ovarian
[10] = test system: SK-MEL-2 melanoma

Compound | GI50 [1] [µM] | TGI [1] [µM] | GI50 [2] | TGI [2] [µM] | GI50 [3] | TGI [3] | GI50 [4] | TGI [4] [µM] | GI50 [5] | TGI [5] [µM] | GI50 [6] [µM] | TGI [6] | GI50 [7] | TGI [7] | GI50 [8] | TGI [8] | GI50 [9] | TGI [9] | GI50 [10] | TGI [10]
CCC(C)/C=C(C)/C=C/C(=O)c1c(O)c(-c2ccc(O)cc2)c[nH]c1=O (stereo not given) | 3.86 | 18.1 | 2.58 µM | 19.7 | 2.9 µM | 15 µM | 2.73 µM | 15.1 | 3.62 µM | 17.6 | 2.74 | 12.6 µM | 3.75 µM | 14.8 µM | 2.16 µM | 14.3 µM | 2.59 µM | 15 µM | 3.53 µM | 11 µM
Cc1ccc(NC2=C(Sc3ccc(Cl)cc3)C(=O)N(Cc3ccccc3)C2=O)cc1Cl | 12.3 | 29 | 11.1 µM | 23.1 | 4.37 µM | > 100 µM | 10.5 µM | 26 | 13.3 µM | 32.8 | 3.44 | 15.9 µM | 19.6 µM | > 100 µM | 8.73 µM | 22.1 µM | 3.98 µM | 15.3 µM | 13.2 µM | 33.3 µM
CN(/N=N/c1nc(OCc2ccccc2)c2[nH]cnc2n1)C(=O)N(C)/N=N/c1nc(OCc2ccccc2)c2[nH]cnc2n1 | 56.6 | > 100 | 49.6 µM | > 100 | 43 µM | > 100 µM | 53.1 µM | > 100 | 34.7 µM | > 100 | 17 | 63.5 µM | 19.3 µM | 81.6 µM | 36.1 µM | > 100 µM | 34.9 µM | > 100 µM | 65.3 µM | > 100 µM
O=C(O)c1ccc(NS(=O)(=O)c2cccc3cccnc23)cc1 | > 100 | > 100 | > 100 µM | > 100 | > 100 µM | > 100 µM | > 100 µM | > 100 | > 100 µM | > 100 | > 100 | > 100 µM | > 100 µM | > 100 µM | > 100 µM | > 100 µM | > 100 µM | > 100 µM | > 100 µM | > 100 µM
O=C(CNC(=O)c1cccc2ccccc12)Nc1ccccc1Oc1ccccc1 | 0.583 | > 10 | 0.345 µM | > 10 | 0.306 µM | > 10 µM | 0.348 µM | > 10 | 0.658 µM | > 10 | 0.353 | > 10 µM | 0.712 µM | > 10 µM | 0.643 µM | > 10 µM | 0.91 µM | > 10 µM | 0.272 µM | > 10 µM
COc1ccc(C(=O)c2cc(OC)c(OC)c(OC)c2)cc1O | 0.0668 | > 100 | 0.0308 µM | > 100 | 0.0327 µM | > 100 µM | 0.0367 µM | > 100 | 0.055 µM | > 100 | 0.363 | > 100 µM | 0.0832 µM | > 100 µM | 0.296 µM | > 100 µM | 0.278 µM | > 100 µM | 0.238 µM | > 100 µM
CN(C)CCNC(=O)c1cc([N+](=O)[O-])ccn1 |  | 64 |  | 91.8 |  | 31.3 µM |  | 49.3 |  | 47.1 |  | > 100 µM |  | > 100 µM |  | > 100 µM |  | > 100 µM |  | 67.5 µM
C=C1C(=O)O[C@@H]2C[C@@H](C)[C@@H]3[C@@H](OC4OC(COC(C)=O)C(O)C(O)C4O)CC(=O)[C@@]3(C)C[C@H]12 (stereo not given in full) |  | 3.51 |  | 16.1 |  | 2.19 µM |  | 7.4 |  | 25.7 |  | 1.01 µM |  | 3.14 µM |  | 3.38 µM |  | 6.2 µM |  | 20.7 µM
COc1cccc(/C=C/C(=O)c2cc3c(N)c(C(=O)Nc4cccc(Cl)c4C)sc3nc2C)c1 | 1.21 | 3.43 | 0.234 µM | > 50 | 0.473 µM | > 24.8 µM | 1.26 µM | > 50 | 1.34 µM | 5.4 | 0.884 | 2.53 µM | 0.971 µM | 1.83 µM | 0.809 µM | 1.97 µM | 0.832 µM | 1.85 µM | 1.64 µM | 12.9 µM
O=c1[nH]nc2c3c(cccc13)NC(CN1Cc3ccccc3C1)=N2 | 6.75 | > 100 | 4.42 µM | > 100 | 3.82 µM | > 100 µM | 4.56 µM | > 100 | 4.41 µM | > 100 | 4.92 | > 100 µM | 4.35 µM | > 100 µM | 4.79 µM | > 100 µM | 3.87 µM | > 100 µM | > 100 µM | > 100 µM
Cc1c(CN2CCC(Nc3ncnc4sc(CC(F)(F)F)cc34)CC2)ccc2c1cc(C#N)n2Cc1cn[nH]c1 | 8.76 | 26.4 | 2.98 µM and 2.97 µM | > 33.7 | 1.59 µM and 2.01 µM | 3.75 µM and 8.6 µM | 1.91 µM and 1.98 µM | 9.55 | 1.33 µM and 2.23 µM | 18.9 | 4.43 | 22.1 µM and > 40.3 µM | 1.86 µM and 2.8 µM | 4.38 µM and 10.9 µM | 2.25 µM and 2.46 µM | 20.1 µM and > 41.2 µM | 5.23 µM and 23.8 µM | 26.1 µM and > 100 µM | 8.97 µM and 9.33 µM | 26.3 µM and 26.5 µM
CCc1ccc(CCC(=O)Nc2ncc(Cc3ccccc3)s2)o1 | 4.42 | > 100 | 2.02 µM | > 100 | 0.515 µM | > 100 µM | 2.43 µM | > 100 | 4.47 µM | > 100 | 2.94 | > 100 µM | 3.24 µM | > 100 µM | 3.19 µM | > 100 µM | 3.24 µM | > 100 µM | 5.42 µM | > 100 µM
